How the values were obtained:
[1] = test system: Panc-1 cells (pancreatic cancer cell line); experiment: FACS of PI-stained cells: cell death, Panc-1 cells; format: cell-based; conditions: Cdc7 inhibitor 0.1 μM, MK-1775 0.5 and 0.75 μM, FIG. 3
Protocol: (§1) Panc-1 (ATCC, CRL-1469) was cultured in a 10-cm dish using a D-MEM medium (Sigma-Aldrich Corp., D5796) supplemented with 10% FCS (Equitech-Bio, Inc.) and 5% penicillin-streptomycin (GIBCO/Thermo Fisher Scientific, Inc., 15140). The medium was removed from the cells in a well grown state (70 to 90% confluent), and the cells were dissociated from the dish by treatment with 2 mL of trypsin (TrypL Express, manufactured by GIBCO/Thermo Fisher Scientific, Inc.) and recovered into the same medium as above.
(§2) The recovered cells of each line were seeded at 2.5×10^5 cells/ml/well to a 6-well plate (BD Falcon, catalog No. 353046). The cells were cultured overnight in a 5% CO2 incubator. On the next day, 500 μl of a medium supplemented with 1.5 μl of a stock solution having a 1000-fold concentration of each compound to be added was added to each well, […]
After the reaction of the cells with the compound for 48 to 72 hours, the cells were dissociated from the well by treatment with trypsin (TrypL Express, manufactured by GIBCO/Thermo Fisher Scientific, Inc.) and washed with DPBS. Then, 1 ml of cold ethanol was added thereto, and the cells were stored at −30° C. until staining. The cells were washed with DPBS once before staining and left standing with a propidium iodide (PI) solution at room temperature for 30 minutes or longer in the dark. […]

MDA-MB-231 cells = experiment: Cell growth inhibition (number of nuclei, Hoechst 33342) with BLISS score evaluation; format: cell-based, human; conditions: 72 hours, Cdc7 inhibitor 19.5 to 10000 nM, MK-1775 7.81 to 1000 nM, FIGS. 12-15
Protocol: The BLISS scoring is a criterion often used in the evaluation of the synergistic effect of drugs used in combination (Borisy et al., Proc. Natl. Acad. Sci. USA. 100 (13): 7977-7982 (2003); and Buck et al., Mol. Cancer. Ther. 5 (11) (2006)). This BLISS scoring was used to analyze the effect of the Cdc7 inhibitor and the Wee1 inhibitor used in combination on the inhibition of cancer cell growth. […]
After the addition of the compounds, the cells were incubated for 72 hours. […] Then, the number of nuclei (the number of cells) was measured using a cell image analyzer (ArrayScan VTI HCS Reader, Thermo Fischer Scientific, Inc.) (Ex/Em=350/461 nm).
After 72 hours, the average number from the control wells was used as the number of untreated control cells (Gunt72), and the average number from the compound-treated wells was used as the number of compound-treated cells (G72). Wells in which the medium was merely replaced 24 hours after the cell inoculation were counted as an initial value and used as the initial number of cells (G0). […]
Assuming that the first test compound and the second test compound each acted as a single agent (i.e., the rate of cell growth when the concentration of either of the compounds was 0), the theoretical BLISS independence (BLISSin) of each well can be calculated according to the following expression: BLISSin=G(First test compound)×G(Second test compound) […]

NHDF cells = experiment: FACS of PI-stained cells: cell death, normal NHDF cells; format: cell-based; conditions: Cdc7 inhibitor 0.1 μM, MK-1775 0.25, 0.5, 0.75 μM, FIG. 2
Protocol: NHDF cells (Cryo NHDF-NeoCC-2509, manufactured by Sanko Junyaku Co., Ltd.) were cultured in a 10-cm dish using a medium (Brett Kit FGM2, CLCC-3132). The medium was removed from the NHDF cells in a well grown state (70 to 90% confluent), and the cells were washed with 5 mL of HEPES-buffered saline in a subculture reagent set (CLCC-5034, manufactured by Sanko Junyaku Co., Ltd.).
After removal of the HEPES-buffered saline, the whole dish was covered with 3 mL of a trypsin/EDTA solution included in the set. The cells were dissociated from the dish by giving a small impact on the side of the dish with taps of a hand. Then, 3 mL of a trypsin-neutralizing solution included in the set was added to the cells, which were then recovered.
as §2
After the reaction of the cells with the compound for 48 to 72 hours, the cells were dissociated from the well by treatment with trypsin (TrypL Express, manufactured by GIBCO/Thermo Fisher Scientific, Inc.) and washed with DPBS. […]

Colo205 cells = experiment: FACS of PI-stained cells: cell cycle and rate of cell death (SubG1), Colo205; format: cell-based; conditions: for cell death induced by Cdc7 inhibitor on coadministration with Wee1 inhibitor MK-1775: Cdc7 inhibitor 0.1 μM, MK-1775 0.25, 0.5, 0.75 μM, FIG. 1 / FIG. 5; for cell death on coadministration with Chk1 inhibitor SCH900776: Cdc7 inhibitor 0.3 μM or 0.1 μM, SCH900776 3.3 μM, FIG. 9; for cell death on coadministration with Chk1 inhibitor UCN-01 / cell death on coadministration with Hsp90 inhibitor geldanamycin: Cdc7 inhibitor 0.1, 0.03 or 0.3 μM; for cell death on coadministration with Chk1 inhibitor UCN-01: UCN-01 333 nM, FIG. 10; for cell death on coadministration with Hsp90 inhibitor geldanamycin: geldanamycin 10 nM or 33 nM, FIG. 11
Protocol: as §1, with “COLO205 (RCB2127, RIKEN BRC)” for “Panc-1 (ATCC, CRL-1469)”, “an RPMI-1640” for “a D-MEM”, “R8758)” for “D5796)”
as §2
After the reaction of the cells with the compound for 48 to 72 hours, the cells were dissociated from the well by treatment with trypsin (TrypL Express, manufactured by GIBCO/Thermo Fisher Scientific, Inc.) and washed with DPBS. Then, 1 ml of cold ethanol was added thereto, and the cells were stored at −30° C. until staining. The cells were washed with DPBS once before staining and left standing with a propidium iodide (PI) solution at room temperature for 30 minutes or longer in the dark. The cells stained with PI were studied for the cell cycle and the rate of cell death indicated by SubG1 using FACS.

[2] = Colo205, Cdc7 inhibitor 0.1 μM or 0.3 μM, MK-1775 0.5 μM, FIG. 8

Compound: O=C(OCC1CC1)C1=C(NN2CCOCC2)O/C(=C\c2c[nH]c3ncccc23)C1=O [compound (I-E), cyclopropylmethyl 5-[(1H-pyrrolo[2,3-b]pyridin-3-yl)methylene]-2-(morpholinoamino)-4-oxo-4,5-dihydrofuran-3-carboxylate]
- cell death induced by Cdc7 inhibitor on coadministration with MK-1775 [1]: synergistically increased
- inhibition of cancer cell growth in combined use with MK-1775 (BLISS score) (MDA-MB-231 cells): synergistically inhibits
- cytotoxicity to normal cells on addition of MK-1775 (NHDF cells): no increase
- cell death induced by Cdc7 inhibitor on coadministration with Wee1 inhibitor MK-1775 (Colo205 cells; Colo205): synergistically increased
- cell death on coadministration with Chk1 inhibitor SCH900776 (Colo205 cells; Colo205): synergistically increased
- cell death on coadministration with Chk1 inhibitor UCN-01 (Colo205 cells; Colo205): synergistically increased
- cell death on coadministration with Hsp90 inhibitor geldanamycin (Colo205 cells; Colo205): synergistically increased
- cell death on coadministration with MK-1775, varied composition (Colo205 cells; Colo205, compound (I-E):MK-1775 = 1:100 to 3:1 (ratio by μM), FIG. 4): sufficiently synergistically increased

Compound: CCOC(=O)C1=C(N2CCc3ccc(OC)cc3C2)O/C(=C\c2c[nH]c3ncccc23)C1=O [compound (I-B), ethyl 5-[(1H-pyrrolo[2,3-b]pyridin-3-yl)methylene]-2-(7-methoxy-3,4-dihydroisoquinolin-2(1H)-yl)-4-oxo-4,5-dihydrofuran-3-carboxylate]
- cell death on coadministration with MK-1775 (Colo205 cells; Colo205, compound (I-B) 0.3 μM, FIG. 6): synergistically increased

Compound: CC(C)OC(=O)C1=C(NN2CCN(CC(F)(F)F)CC2)O/C(=C\c2c[nH]c3ncccc23)C1=O [compound (I-C), isopropyl 5-[(1H-pyrrolo[2,3-b]pyridin-3-yl)methylene]-4-oxo-2-{[4-(2,2,2-trifluoroethyl)piperazinyl]amino}-4,5-dihydrofuran-3-carboxylate]
- cell death on coadministration with MK-1775 (Colo205 cells; Colo205, compound (I-C) 0.1 μM or 0.3 μM, FIG. 7): synergistically increased

Compound: CC(C)OC(=O)C1=C(NN2CCOCC2)OC(=Cc2c[nH]c3ncccc23)C1=O [compound (I-A), isopropyl 5-[(1H-pyrrolo[2,3-b]pyridin-3-yl)methylene]-2-(morpholinoamino)-4-oxo-4,5-dihydrofuran-3-carboxylate]
- cell death induced by Cdc7 inhibitor on coadministration with Wee1 inhibitor MK-1775 (Colo205 cells; Colo205): synergistically increased

Compound: C=CCn1c(=O)c2cnc(Nc3ccc(N4CCN(C)CC4)cc3)nc2n1-c1cccc(C(C)(C)O)n1 [MK-1775, reference compound]
- proportion of cells in the M-phase (Colo205 cells; MK-1775 0.1 to 1 μM): increased

Compound: CCOC(=O)C1=C(NN2CCN(CC(F)(F)F)CC2)O/C(=C\c2c[nH]c3ncccc23)C1=O [compound (I-D), ethyl 5-[(1H-pyrrolo[2,3-b]pyridin-3-yl)methylene]-4-oxo-2-{[4-(2,2,2-trifluoroethyl)piperazinyl]amino}-4,5-dihydrofuran-3-carboxylate]
- cell death induced by Cdc7 inhibitor on coadministration with MK-1775 [1]: synergistically increased
- inhibition of cancer cell growth in combined use with MK-1775 (BLISS score) (MDA-MB-231 cells): synergistically inhibits
- cytotoxicity to normal cells on addition of MK-1775 (NHDF cells): no increase
- cell death induced by Cdc7 inhibitor on coadministration with Wee1 inhibitor MK-1775 (Colo205 cells; Colo205): synergistically increased
- cell death on coadministration with Chk1 inhibitor SCH900776 (Colo205 cells; Colo205): synergistically increased
- cell death on coadministration with Chk1 inhibitor UCN-01 (Colo205 cells; Colo205): synergistically increased
- cell death on coadministration with Hsp90 inhibitor geldanamycin (Colo205 cells; Colo205): synergistically increased

Compound: NC(=O)c1cc(-c2ccnc(N)n2)[nH]c1-c1ccc(Cl)cc1Cl [compound (I-G), 5-(2-amino-pyrimidin-4-yl)-2-(2,4-dichloro-phenyl)-1H-pyrrole-3-carboxylic acid amide, reference compound]
- cell death on coadministration with MK-1775 (Colo205 cells; [2]): synergistically increased

Compound: O=C1NCCc2[nH]c(-c3ccncc3)cc21 [compound (I-F), 2-(pyridin-4-yl)-1,5,6,7-tetrahydro-4H-pyrrolo[3,2-c]pyridinone, reference compound]
- cell death on coadministration with MK-1775 (Colo205 cells; [2]): synergistically increased
